Measurements taken from US20070213257A1, “COMPOSITIONS AND METHODS FOR COMPLEXES OF NUCLEIC ACIDS AND PEPTIDES” (Nastech Pharmaceutical Company Inc., priority 2005, published 2007).
Where two headings read alike, the source gives them in different places.

Tests used:
LC20 siRNA/PN73 complex = LC20 siRNA/PN73 complex (Homo sapiens, UniProt P62807)
Description: (§1) In this example, size exclusion chromatography (SEC) coupled with an ultraviolet detector (UV 260nm) and static laser light scattering (LS) detector was used to characterize the physical properties of the LC20 siRNA/PN73 peptide complex in the presence or absence of the organic salt. In addition, the phosphate/nitrogen (P/N) charge ratio for LC20 siRNA/PN73 was calculated.
LC20 siRNA/PN73 aggregation was characterized in the presence or absence of NMDG-glutamate by SEC-UV/LS.

PN73 = PN73 (Homo sapiens, UniProt P62807); experiment: SEC-UV/LS: effect of organic salt on PN73 aggregation; type: physicochemical; conditions: 100 mM salt, without LC20 siRNA
Description: as §1
PN73 in monomeric form is 4 kiloDaltons (kDA); however an intrinsic property of this peptide is to aggregate and form large complexes in solution. An initial study was performed to analyze the physical properties of PN73, without LC20 siRNA, in the presence and absence of 100 mM NMDG-glutamate salt or 9% sorbitol (no salt environment). […] In contrast, in the presence of 100 mM NMDG-glutamate salt, two distinct adjacent UV traces were observed indicating two distinct species of PN73 were present. […] Next, the ability of NMDG-glutamate and other organic salts to reduced PN73 aggregation in the presence of LC20 siRNA was characterized by SEC-UV/LS.

LC20 siRNA/PN73 complex, sequence (P62807 13-48 limits assumed, one chain of several): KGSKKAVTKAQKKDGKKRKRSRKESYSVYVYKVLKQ
PN73, sequence (P62807 13-48): as the sequence (P62807 13-48 limits assumed, one chain of several) above

Compound	stabilization of LC20 siRNA/PN73 complex in solution (LC20 siRNA/PN73 complex; 1 mM salt)	stabilization of LC20 siRNA/PN73 complex in solution (LC20 siRNA/PN73 complex; 10 mM salt)	stabilization of LC20 siRNA/PN73 complex in solution (LC20 siRNA/PN73 complex; 100 mM salt)	effect on PN73 aggregation (PN73)	stabilization of LC20 siRNA/PN73 complex in solution (LC20 siRNA/PN73 complex; 150 mM salt)
CNC[C@H](O)[C@@H](O)[C@H](O)[C@H](O)CO.N[C@@H](CCC(=O)O)C(=O)O [NMDG-glutamate, N-methyl-D-glucamine (NMDG)]	effective stabilizer	effective stabilizer	effective stabilizer	reduces PN73 aggregation significantly	
N=C(N)NCCC[C@H](N)C(=O)O [arginine glutamate, arginine]	effective stabilizer	effective stabilizer	effective stabilizer		not an effective stabilizer
NCCCNCCCCNCCCN [spermine acetate, spermine]	effective LC20 siRNA/PN73 stabilizer	effective LC20 siRNA/PN73 stabilizer	dissociates the LC20 siRNA/PN73 peptide complex		
trimethylethanolamine (Choline) [choline chloride]	may not be suitable as a stabilizer	may not be suitable as a stabilizer	may not be suitable as a stabilizer		
